Laboratory results as given in patent US20100104565A1, “COMBINATIONS COMPRISING DMXAA FOR THE TREATMENT OF CANCER” (ANTISOMA RESEARCH LIMITED, priority 2005, published 2010).
Read-outs that look alike come from different tables or passages of the source.

Tests used:
[1] = test system: glucoronidation and 6-methylhydroxylation of DMXAA in mouse liver microsomes; conditions: diclofenac 100 μM; cited from earlier work
[2] = test system: glucoronidation and 6-methylhydroxylation of DMXAA in human liver microsomes; conditions: diclofenac 100 μM; cited from earlier work
[3] = diclofenac 100 mg/kg i.p., cited from earlier work
human tumours = conditions: phase I monotherapy, cited from earlier work
[4] = test system: A549 (lung carcinoma) xenografts; experiment: A549 human lung carcinoma xenograft study in nude athymic mice; format: in vivo
Description: Xenografts for human lung cancer are set-up in groups of nude, athymic mice. The cell line selected was A549 (ATCC number CCL-185), a lung carcinoma.

[5] = with thalidomide, cited from earlier work

O=C(O)Cc1ccccc1Nc1c(Cl)cccc1Cl [diclofenac]
inhibition of 6-methylhydroxylation of DMXAA [1]: > 54%
inhibition of glucoronidation of DMXAA [1]: > 70%
inhibition of 6-methylhydroxylation of DMXAA [2]: > 54%
inhibition of glucoronidation of DMXAA [2]: > 70%
increase in the plasma DMXAA AUC ([3]; female mice): 31%
increase in DMXAA T1/2 ([3]; male and female mice, P<0.05): threefold increase
increase in the plasma DMXAA AUC ([3]; male mice): 24%

Cc1ccc2c(=O)c3cccc(CC(=O)O)c3oc2c1C [DMXAA, 5,6-dimethylxanthenone-4-acetic acid]
tumour blood flow (dynamic MRI) (human tumours; well-tolerated doses): significant reduction in tumour blood flow
tumour responses (human tumours): very few tumour responses
Drug deaths ([4]; A549 xenografts, DMXAA 21 mg/kg, Erbitux 33 mg/kg by injection, deaths/mice per group): 2/10
Response CR ([4]; Complete Response (cure; undetectable tumour over two weeks), Table 2): 0
Response PD ([4]; Progressive Disease (≧50% increase in tumour size), Table 2): 2/10
Response SD ([4]; Stable Disease (does not satisfy criteria for PR or PD), Table 2): 16
Tumour Growth Delay ([4]; difference in days for treated versus control tumours to quadruple in volume): 16 days
TTP ([4]; median time to disease progression): 16 days
Regression Duration ([4]; number of days that tumour volume is less than the original treatment volume): 0 days
Median VQT (Range; days) ([4]; tumour volume quadrupling time, A549 xenografts): 48 days

O=C1CCC(N2C(=O)c3ccccc3C2=O)C(=O)N1 (stereo not drawn) [Thalidomide, thalidomide]
increase of the AUC of DMXAA ([5]; liver): 1.8 times
increase of the AUC of DMXAA ([5]; plasma): 1.8 times
increase of the AUC of DMXAA ([5]; spleen): 1.8 times
increase of the AUC of DMXAA ([5]; tumour): three times
